Results from article PMC6001238, “Iterative Chemical Engineering of Vancomycin Leads to Novel Vancomycin Analogs With a High in Vitro Therapeutic Index” (Frontiers in Microbiology, 2018).
Converted amounts (≈) assume the structure as drawn. Like-named read-outs stand apart in the source and are kept apart here.

Key:
[1] = test system: E. faecalis VSE 1; test: MIC, broth microdilution, vancomycin-sensitive E. faecalis (VSE 1); type: cell-based, Enterococcus faecalis
Outline: (§1)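 Susceptibility was scored by broth microdilution (CLSI). In one instance each vancomycin analog or control antibiotic was tested in the presence of vancomycin, 10 μM final, and ultrapure water plus non-inoculated broth were included as controls.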

[2] = test system: E. faecalis VRE 6; test: MIC, broth microdilution, vancomycin-resistant E. faecalis VRE 6 (VanA); type: cell-based, Enterococcus faecalis
Outline: as §1

[3] = test system: E. faecalis VRE 53; test: MIC, broth microdilution, vancomycin-resistant E. faecalis VRE 53 (VanA); type: cell-based, Enterococcus faecalis
Outline: as §1

[4] = test system: E. faecalis VRE 29; test: MIC, broth microdilution, vancomycin-resistant E. faecalis VRE 29 (VanA); type: cell-based, Enterococcus faecalis
Outline: as §1

[5] = test system: E. faecalis VRE 37; test: MIC, broth microdilution, vancomycin-resistant E. faecalis VRE 37 (VanA); type: cell-based, Enterococcus faecalis
Outline: as §1

[6] = test system: Murine leukemia (L1210) cells; test: Cytostatic activity, L1210 cell proliferation; type: cell-based; conditions: mean ± SD of three experiments; highest concentration tested 250 µM; 2 days; read-out: Toxicity (IC50) L1210
Outline: (§2)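 Readout: Coulter cell number after drug exposure at 37°C. Durations differ by line (L1210 2 days; CEM 3 days; HeLa 4 days). Stock suspension 300,000–500,000 cells/mL, diluted by mixing with compound. Endpoint: IC50 vs negative control.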

[7] = test system: human T-lymphocyte (CEM) cells; test: Cytostatic activity, CEM cell proliferation; type: cell-based; conditions: mean ± SD of three experiments; highest concentration tested 250 µM; 3 days; read-out: Toxicity (IC50) CEM
Outline: as §2

[8] = test system: human cervix carcinoma (HeLa) cells; test: Cytostatic activity, HeLa cell proliferation; type: cell-based; conditions: mean ± SD of three experiments; highest concentration tested 250 µM; 4 days; read-out: Toxicity (IC50) HeLa
Outline: as §2

[9] = test system: L1210, CEM and HeLa cell lines; test: Cytostatic activity, average or summary over L1210, CEM and HeLa; type: cell-based
Outline: as §2

[10] = test system: S. aureus VSSA (ATCC 6538); test: MIC, broth microdilution, vancomycin-sensitive S. aureus (VSSA/MSSA, ATCC 6538); type: cell-based, Staphylococcus aureus
Outline: as §1

[11] = test system: S. aureus VISA/HIP5827; test: MIC, broth microdilution, vancomycin-intermediate S. aureus VISA HIP5827; type: cell-based, Staphylococcus aureus
Outline: as §1

[12] = test system: S. aureus VRSA; test: MIC, broth microdilution, vancomycin-resistant S. aureus (VRSA); type: cell-based, Staphylococcus aureus
Outline: as §1

[13] = test system: MRSA KS89; test: MIC, broth microdilution, MRSA KS89; type: cell-based, Staphylococcus aureus
Outline: as §1

[14] = test system: 33 clinical VRE isolates; test: MIC against a set of 33 clinical VRE isolates (range, MIC50, TI); type: cell-based, Enterococcus faecalis
Experimental: (§3) The minimum inhibitory concentration (MIC) was determined using the broth microdilution method according to the antimicrobial susceptibility testing standards of the clinical and laboratory standards institute ([Clinical and Laboratory Standards Institute [CLSI], 2012]). Ultrapure water and non-inoculated broth were used as controls. In one case, a final concentration of 10 μM vancomycin was included with the vancomycin analog or control antibiotic.

[15] = test system: 24 clinical MRSA isolates; test: MIC against a set of 24 clinical MRSA isolates (range, MIC50, TI); type: cell-based, Staphylococcus aureus
Experimental: as §3

[16] = test system: VE 148 (VanB); test: MIC, VanB-type VRE strain VE 148; type: cell-based, Enterococcus; conditions: VE 148, VanB; read-out: MIC
Experimental: as §3

[17] = test system: VE 149 (VanB); test: MIC, VanB-type VRE strain VE 149; type: cell-based, Enterococcus; conditions: VE 149, VanB; read-out: MIC
Experimental: as §3

[18] = test system: VE 150 (VanB); test: MIC, VanB-type VRE strain VE 150; type: cell-based, Enterococcus; conditions: VE 150, VanB; read-out: MIC
Experimental: as §3

[19] = test system: VE 152 (VanB); test: MIC, VanB-type VRE strain VE 152; type: cell-based, Enterococcus; conditions: VE 152, VanB; read-out: MIC
Experimental: as §3

[20] = test system: VE 157 (VanB); test: MIC, VanB-type VRE strain VE 157; type: cell-based, Enterococcus; conditions: VE 157, VanB; read-out: MIC
Experimental: as §3

[21] = test system: VE 82 (VanC1); test: MIC, VanC1-type VRE strain VE 82; type: cell-based, Enterococcus gallinarum; conditions: VE 82, VanC1; read-out: MIC
Experimental: as §3

[22] = test system: VRE39; test: MIC in the absence and presence of 10 µM vancomycin (vanA induction); type: cell-based, Enterococcus faecalis
Experimental: as §3

[23] = test system: MRSA; test: Minimum bactericidal concentration against MRSA; type: cell-based, Staphylococcus aureus
Experimental: Plates were incubated overnight at 37°C and colony growth was inspected.

## CNC(CC(C)C)C(=O)NC1C(=O)NC(CC(N)=O)C(=O)NC2C(=O)NC3C(=O)NC(C(=O)NC(C(=O)NCC(=O)Nc4ccc(-c5ccccc5)cc4)c4cc(O)cc(O)c4-c4cc3ccc4O)C(O)c3ccc(c(Cl)c3)Oc3cc2cc(c3OC2OC(CO)C(O)C(O)C2OC2CC(C)(N)C(O)C(C)O2)Oc2ccc(cc2Cl)C1O (stereo not shown) [Vanc-83]
[1]; Enterococcus faecalis VSE 1 (vancomycin-sensitive), read-out: MIC
  MIC: 0.39 µM (≈ 0.646 µg/mL)
[1]; VSE 1, ratio of MIC of vancomycin and MIC of analogue
  MIC-fold improvement vs. vancomycin: 4
[2]; Enterococcus faecalis VRE 6 (vancomycin-resistant), read-out: MIC
  MIC: 0.78 µM (≈ 1.29 µg/mL)
[2]; VRE 6, ratio of MIC of vancomycin and MIC of analogue
  MIC-fold improvement vs. vancomycin: 256
[3]; Enterococcus faecalis VRE 53 (vancomycin-resistant), read-out: MIC
  MIC: 1.56 µM (≈ 2.59 µg/mL)
[3]; VRE 53, ratio of MIC of vancomycin and MIC of analogue
  MIC-fold improvement vs. vancomycin: 256
[4]; Enterococcus faecalis VRE 29 (vancomycin-resistant), read-out: MIC
  MIC: 1.56 µM (≈ 2.59 µg/mL)
[4]; VRE 29, ratio of MIC of vancomycin and MIC of analogue
  MIC-fold improvement vs. vancomycin: 256
[5]; Enterococcus faecalis VRE 37 (vancomycin-resistant), read-out: MIC
  MIC: 1.56 µM (≈ 2.59 µg/mL)
[5]; VRE 37, ratio of MIC of vancomycin and MIC of analogue
  MIC-fold improvement vs. vancomycin: 256
[6]
  IC50: 179 ± 41 µM
[7]
  IC50: 37 ± 6 µM
[8]
  IC50: 105 ± 27 µM
[9]; average IC50 used for TI in Table S5, >250 entered as 250, read-out: IC50
  IC50: 107 µM
[9]; average of L1210, CEM and HeLa, read-out: Toxicity (IC50) Average
  IC50: 107 µM
[10]; Staphylococcus aureus VSSA, read-out: MIC
  MIC: 0.20 µM (≈ 0.332 µg/mL)
[10]; VSSA, ratio of MIC of vancomycin and MIC of analogue
  MIC-fold improvement vs. vancomycin: 4
[11]; Staphylococcus aureus VISA/HIP5827, read-out: MIC
  MIC: 1.56 µM (≈ 2.59 µg/mL)
[11]; VISA/HIP5827, ratio of MIC of vancomycin and MIC of analogue
  MIC-fold improvement vs. vancomycin: 4
[12]; Staphylococcus aureus VRSA, read-out: MIC
  MIC: 0.39 µM (≈ 0.646 µg/mL)
[12]; VRSA, ratio of MIC of vancomycin and MIC of analogue
  MIC-fold improvement vs. vancomycin: 256
[13]; MRSA KS8, ratio of MIC of vancomycin and MIC of analogue
  MIC-fold improvement vs. vancomycin: 4
[13]; Staphylococcus aureus MRSA KS8, read-out: MIC
  MIC: 0.20 µM (≈ 0.332 µg/mL)
[14]; 33 clinical VRE isolates
  MIC Range: 0.78 to 3.13 µM
[14]; in vitro therapeutic index, VRE
  TI (IC50/MIC50): 69
[15]; 24 clinical MRSA isolates
  MIC Range: 0.10 to 0.78 µM
[15]; in vitro therapeutic index, MRSA
  TI (IC50/MIC50): 535
[15]; median MIC, 24 clinical MRSA isolates, read-out: MIC50
  MIC50: 0.20 µM (≈ 0.332 µg/mL)
[16]
  MIC: 1.56 µM (≈ 2.59 µg/mL)
[17]
  MIC: 1.56 µM (≈ 2.59 µg/mL)
[18]
  MIC: 1.56 µM (≈ 2.59 µg/mL)
[19]
  MIC: 1.56 µM (≈ 2.59 µg/mL)
[20]
  MIC: 1.56 µM (≈ 2.59 µg/mL)
[21]
  MIC: 0.78 µM (≈ 1.29 µg/mL)
[22]; VRE39, 0 µM vancomycin
  MIC: 1.56 µM
[22]; VRE39, 10 μM vancomycin added
  MIC: 3.13 µM
[23]
  MBC relative to MIC: MBC equaling their MIC values
